Experimental data as given in US20250281515A1, “CARBORANE COMPOUNDS, CARBORANE ANALOGS, AND METHODS OF USE THEREOF” (Ohio State Innovation Foundation, priority 2018, published 2025).
Where “and” joins values, the source holds several entries; their conditions need not be identical. Identical values can stand only once. Like-named read-outs stand apart in the source and are kept apart here.

Key:
Human full-length GR = target: T1, Human full-length GR (Homo sapiens, UniProt P04150); assay: GR cell-based luciferase reporter assay, agonist and antagonist mode; settings: U2OS stable reporter cells; antagonist mode with 10 nM dexamethasone; concentration range tested 100 μM to 100 μM (so in the source)
T1 sequence (P04150 1-777): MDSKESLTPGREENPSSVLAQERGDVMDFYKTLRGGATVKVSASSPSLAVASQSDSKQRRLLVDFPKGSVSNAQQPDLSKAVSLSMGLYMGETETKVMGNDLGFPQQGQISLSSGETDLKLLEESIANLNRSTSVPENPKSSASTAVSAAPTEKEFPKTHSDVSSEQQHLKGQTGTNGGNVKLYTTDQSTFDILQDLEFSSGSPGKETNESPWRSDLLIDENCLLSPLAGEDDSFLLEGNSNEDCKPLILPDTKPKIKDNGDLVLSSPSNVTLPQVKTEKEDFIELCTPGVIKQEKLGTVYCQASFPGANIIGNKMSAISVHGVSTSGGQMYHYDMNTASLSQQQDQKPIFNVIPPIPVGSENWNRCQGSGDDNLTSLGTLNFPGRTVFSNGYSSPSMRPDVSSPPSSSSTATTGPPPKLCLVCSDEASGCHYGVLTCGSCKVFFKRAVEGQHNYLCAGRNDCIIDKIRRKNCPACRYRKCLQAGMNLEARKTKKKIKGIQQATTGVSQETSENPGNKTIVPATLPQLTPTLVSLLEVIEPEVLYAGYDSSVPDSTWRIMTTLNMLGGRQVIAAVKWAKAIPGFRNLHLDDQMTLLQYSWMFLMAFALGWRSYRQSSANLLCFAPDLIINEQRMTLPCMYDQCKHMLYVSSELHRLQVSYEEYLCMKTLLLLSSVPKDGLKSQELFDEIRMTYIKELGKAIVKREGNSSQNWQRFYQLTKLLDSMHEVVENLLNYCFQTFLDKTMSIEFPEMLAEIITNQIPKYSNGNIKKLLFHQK

Human full-length ERβ = target: T2, Human full-length ERβ (Homo sapiens, UniProt Q92731); assay: ERβ cell-based luciferase reporter assay, agonist mode
T2 construct: expression vector encoding human full-length ERα or ERβ; expressed in transfected cells; host or cells: HEK293, transiently transfected
T2 sequence (Q92731 whole entry): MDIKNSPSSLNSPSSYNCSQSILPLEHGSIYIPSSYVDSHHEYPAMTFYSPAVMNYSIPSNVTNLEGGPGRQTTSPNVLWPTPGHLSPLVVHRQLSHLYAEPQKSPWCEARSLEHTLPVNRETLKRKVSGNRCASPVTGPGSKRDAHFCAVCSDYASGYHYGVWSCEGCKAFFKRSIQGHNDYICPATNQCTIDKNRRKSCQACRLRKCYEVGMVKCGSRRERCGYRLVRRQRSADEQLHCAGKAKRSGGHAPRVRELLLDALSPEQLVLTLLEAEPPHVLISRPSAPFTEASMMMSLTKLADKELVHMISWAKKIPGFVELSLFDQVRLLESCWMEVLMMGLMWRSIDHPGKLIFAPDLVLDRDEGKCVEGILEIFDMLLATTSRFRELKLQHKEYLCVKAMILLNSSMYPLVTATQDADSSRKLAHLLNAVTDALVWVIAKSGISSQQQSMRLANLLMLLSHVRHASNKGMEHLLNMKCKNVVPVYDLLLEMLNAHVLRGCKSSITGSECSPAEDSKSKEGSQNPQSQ
Protocol: (§1) The selectivity and potency of the various compounds was carried out via in vitro testing in ERα and ERβ cell-based reporter assays. The activity of the selected compounds was determined in the cell-based reporter assays in HEK293 cells.
(§2) The HEK293 cells were propagated in a monolayer in phenol red-free DMEM supplemented with 10% fetal bovine serum, 2 mM Glutamax and penicillin/streptomycin (Thermo Fisher Scientific, MA, USA) and incubated in a 5% CO2 humidified atmosphere at 37° C. Right before transfection, the growth medium was changed to phenol red-free DMEM supplemented with 4% HyClone Fetal Bovine Serum, Charcoal/Dextran Treated (GE Healthcare Life Sciences, USA) and 2 mM Glutamax (starvation medium). The cells were transfected with the expression vector encoding human full-length ERα or ERβ and with the reporter vector containing 3 repeats of estrogen responsive elements (ERE) followed by the minimal thymidine kinase promoter from the herpes simplex virus in the pGL4 vector (Promega, USA). Luciferase served as a reporter gene. The transfection was carried out in 10 cm dishes (Nunc) in the starvation medium. After 24 hours, the cells were trypsinized, counted and seeded to cell culture treated, white, solid 1536-well plates (Corning Inc., NY, USA) at 1500 cells/well in 4 μl of total media volume. The compounds to be tested were diluted in DMSO and transferred to the cells using an acoustic dispenser Echo 520 (Labcyte). The compounds were tested at least at 12 different concentration points in the range from […] to 100 μM, in triplicates. Luciferase activity was determined after 24 hours of incubation with compounds with Britelite plus luciferase reporter gene assay reagent (Perkin Elmer, USA), according to the manufacturer protocol. The luciferase signal was measured on an Envison multimode plate reader (Perkin Elmer, USA). Data were collected and processed using an in-house built LIMS system ScreenX and GraphPad Prism software. EC50 values were calculated using a regression function (dose response, variable slope).
(§3) The selectivity and potency of various example compounds in the second library was carried out via in vitro testing in ERα and ERβ cell-based reporter assays.

HEK293 cells = assay: HEK293 viability assay (ATPlite 1step); format: cell-based, human; settings: non-transfected HEK293, 24 h, ATP level; Trial 2; Low = activity too low for exact value
Protocol: The non-transfected HEK293 cells were seeded to the 384-well plates at 5000 cell/well, compounds were added and the timing of all subsequent steps was exactly the same as in the reporter assays. […] After 24 h of compound incubation with cells, the viability of cells was measured by determining the ATP level in the samples using luciferase cell viability assay, ATPlite 1step (Perkin Elmer, USA).

Human full-length ERα = target: T3, Human full-length ERα (Homo sapiens, UniProt P03372); assay: ERα cell-based luciferase reporter assay, agonist mode; settings: for EC50: Table 8, second library, read-out: ERα agonism EC50
T3 construct: expression vector encoding human full-length ERα or ERβ; expressed in transfected cells; host or cells: HEK293, transiently transfected
T3 sequence (P03372 1-595): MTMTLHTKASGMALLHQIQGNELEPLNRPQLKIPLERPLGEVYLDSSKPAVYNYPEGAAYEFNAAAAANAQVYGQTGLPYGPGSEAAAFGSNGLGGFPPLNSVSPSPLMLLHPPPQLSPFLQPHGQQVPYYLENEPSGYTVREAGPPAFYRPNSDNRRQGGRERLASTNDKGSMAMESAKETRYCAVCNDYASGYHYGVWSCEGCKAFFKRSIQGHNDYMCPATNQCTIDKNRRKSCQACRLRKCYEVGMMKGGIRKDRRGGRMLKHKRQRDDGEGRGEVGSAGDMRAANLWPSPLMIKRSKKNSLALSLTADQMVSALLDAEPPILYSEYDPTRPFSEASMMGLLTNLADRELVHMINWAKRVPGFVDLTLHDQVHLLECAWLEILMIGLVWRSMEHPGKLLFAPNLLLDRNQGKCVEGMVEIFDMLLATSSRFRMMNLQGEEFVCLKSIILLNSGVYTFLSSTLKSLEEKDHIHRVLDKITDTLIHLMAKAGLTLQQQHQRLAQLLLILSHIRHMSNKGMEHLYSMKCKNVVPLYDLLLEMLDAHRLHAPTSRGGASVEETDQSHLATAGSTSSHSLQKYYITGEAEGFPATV
Protocol: as §1, §2, §3

Human full-length AR = target: T4, Human full-length AR (Homo sapiens, UniProt P10275); assay: AR cell-based luciferase reporter assay, agonist and antagonist mode; settings: U2OS stable reporter cells; antagonist mode with 2 nM DHT; concentration range tested 100 μM to 100 μM (so in the source)
T4 sequence (P10275 1-920): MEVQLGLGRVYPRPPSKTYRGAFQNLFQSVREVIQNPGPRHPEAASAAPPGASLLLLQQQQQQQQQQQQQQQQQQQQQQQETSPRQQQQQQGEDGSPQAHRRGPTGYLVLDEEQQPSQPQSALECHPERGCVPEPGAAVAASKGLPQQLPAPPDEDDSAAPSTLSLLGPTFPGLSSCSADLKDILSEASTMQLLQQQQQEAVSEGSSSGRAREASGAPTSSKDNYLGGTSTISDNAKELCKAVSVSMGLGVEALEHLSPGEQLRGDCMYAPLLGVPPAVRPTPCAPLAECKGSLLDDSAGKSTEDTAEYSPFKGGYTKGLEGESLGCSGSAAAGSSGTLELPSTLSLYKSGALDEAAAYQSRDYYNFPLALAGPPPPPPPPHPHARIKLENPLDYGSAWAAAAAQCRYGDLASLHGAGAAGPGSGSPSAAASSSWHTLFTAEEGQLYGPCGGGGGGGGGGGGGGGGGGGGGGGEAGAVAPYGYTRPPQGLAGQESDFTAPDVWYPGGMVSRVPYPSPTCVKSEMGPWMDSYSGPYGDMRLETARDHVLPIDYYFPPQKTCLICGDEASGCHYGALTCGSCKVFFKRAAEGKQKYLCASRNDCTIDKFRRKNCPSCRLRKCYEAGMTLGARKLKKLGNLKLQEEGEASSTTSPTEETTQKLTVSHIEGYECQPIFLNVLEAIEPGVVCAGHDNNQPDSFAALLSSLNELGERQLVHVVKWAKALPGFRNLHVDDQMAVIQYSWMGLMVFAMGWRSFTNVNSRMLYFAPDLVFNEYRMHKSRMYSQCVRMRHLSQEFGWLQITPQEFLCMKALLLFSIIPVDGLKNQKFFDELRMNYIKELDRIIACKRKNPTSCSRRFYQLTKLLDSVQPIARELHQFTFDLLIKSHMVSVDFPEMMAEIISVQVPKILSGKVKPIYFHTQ

[1] = HEK293, 24 hours, Trial 2 (believed more reliable), low = activity detected but too low for exact value
[2] = Table 8, second library, read-out: ERβ agonism EC50

Compound	EC50 (Human full-length ERβ; [2]) [µM]	EC50 (Human full-length ERα) [µM]	agonistic or antagonistic activities on GR (Human full-length GR)	further results
1-(4-hydoxyphenyl)-12-(1-hydroxyheptyl)-1,12-dicarba-closo-dodecaborane [Compound 06]	–	–	no agonistic or antagonistic activities	ERβ Efficacy (Human full-length ERβ; HEK293, 24 hours, Trial 2): 100 and 103; ERβ Log(EC50) (Human full-length ERβ; [1]): −7.71 and −7.76; EC50 (Human full-length ERβ; HEK293, 24 hours, Trial 2 (believed more reliable), low = activity detected but too low for exact value, read-out: ERβ EC50): 0.019 µM and 0.017 µM; EC50 (Human full-length ERβ; text of Example 19, luciferase reporter-based cell assay in HEK cells, read-out: EC50 at ERβ): 0.005 µM; IC50 (HEK293 cells): 18 µM and 17 µM
CCCCCC[C@H](O)c1ccc(-c2ccc(O)cc2)cc1 [Compound 26]	> 10	> 10	–	–
CCCCCC[C@H](O)C1C2CC3CC1CC(c1ccc(O)cc1)(C3)C2 (stereo partly drawn) [Compound 30]	> 10	> 10	–	–
C[C@]12CC[C@@H]3c4ccc(O)cc4CC[C@H]3[C@@H]1CC[C@@H]2O [Compound E2, Estradiol, reference compound]	–	–	no agonistic or antagonistic activities	HEK293 viability IC50 (μM) (HEK293 cells): Low
N#CC(Cc1ccc(O)cc1)c1ccc(O)cc1 (stereo not drawn) [DPN, Diarylpropionitrile]	–	–	no agonistic or antagonistic activities	agonistic or antagonistic activities on AR (Human full-length AR): no agonistic or antagonistic activities; HEK293 viability IC50 (μM) (HEK293 cells): Low
CCCc1c(-c2ccc(O)cc2)nn(-c2ccc(O)cc2)c1-c1ccc(O)cc1 [PPT, Propyl pyrazole triol, reference compound]	–	–	–	ERβ EC50 (nM) (Human full-length ERβ; [1]): low; ERβ Log(EC50) (Human full-length ERβ; [1]): low; ERα Efficacy (Human full-length ERα; HEK293, 24 hours, Trial 2): 101

More lines, main results first:

EC50 (Human full-length ERβ; [2]) [µM]	EC50 (Human full-length ERα) [µM]	Compound	agonistic or antagonistic activities on GR (Human full-length GR)	further results
> 10	> 10	CCCCCC[C@H](O)C1CCC(c2ccc(O)cc2)CC1 (stereo partly drawn) [Compound 27]	–	–
4.12	> 10	CCCCCC[C@H](O)C12CCC(c3ccc(O)cc3)(CC1)CC2 [Compound 28]	–	–
> 10	> 10	CCCCCC[C@@H](O)C12CCC(c3ccc(O)cc3)(CC1)CC2 [Compound 29]	–	–
